Experimental data: US4889860A (Nova Pharmaceutical Corporation, priority 1987, dated 1989)
Where two headings read alike, the source gives them in different places.

Assays:
[1] = molecular target: delta-type opioid receptor (Rattus norvegicus, UniProt P33533); test: inhibition of specific [^3 H] DADLE binding to rat forebrain membranes
Procedure: (§1) The interaction of some of the novel compounds with mu and delta-type opioid receptors present in brain membranes was examined in vitro. […] DAGO (mu-type receptor) or [^3 H] DADLE (delta-type receptor) was determined using rat forebrain membranes. Computer assisted analysis (EBDA) was used to determine apparent Ki values for the various compounds.
(§2) Values represent the MEAN±S.E.M. of the Ki(nM) for each compound to inhibit specific binding of the indicated ligand to rat brain membranes. The values are from two-five separate experiments and were calculated according to the method of Cheng and Prusoff [Biochem. Pharmacol. 1973, 22, 3099-3108] together with the EBDA Program. Numbers in parentheses are the mean Hill coefficients for each compound to inhibit ligand binding.
as §2, with “two.div.seven” for “two-five”, “Prusoff” for “Prusoff [Biochem. Pharmacol. 1973, 22, 3099-3108]”, “program.” for “Program.”, “binding. N.D.=not determined” for “binding.”
(§3) The interaction of some of the novel compounds with mu, delta and kappa - type opioid receptors present in brain membranes was examined in vitro. […] DAGO (mu-type receptor), or [^3 H] DADLE (Delta-type receptor) using rat forebrain membranes and [^3 H] EKC (kappa-type receptor) using guiniea pig cerebellum membrane was determined. Computer assisted analysis (EBDA) was used to determine apparent Ki values for the various compounds.
(§4) The values represent the MEAN±S.E.M. of the Ki(nM) for each compound to inhibit specific binding of the indicated ligand. Each value represents the mean of three individual experiments performed on separate occasions.

mu-type opioid receptor = molecular target: T1, mu-type opioid receptor (Rattus norvegicus, UniProt P33535); test: inhibition of specific [^3 H] DAGO binding to rat forebrain membranes
T1 construct: using rat forebrain membranes; from tissue; host or cells: rat forebrain membranes
Procedure: as §1, §2
as §2, with “two.div.seven” for “two-five”, “Prusoff” for “Prusoff [Biochem. Pharmacol. 1973, 22, 3099-3108]”, “program.” for “Program.”, “binding. N.D.=not determined” for “binding.”
as §3, §4

[2] = molecular target: T2, kappa-type opioid receptor (Cavia porcellus, UniProt P41144); test: inhibition of specific [^3 H] EKC binding to guinea pig cerebellum membrane
T2 construct: using guiniea pig cerebellum membrane; from tissue; host or cells: guinea pig cerebellum membranes
Procedure: as §3, §4

[3] = test system: oxymorphonazine (OMZ)-induced analgesia; test: antagonism of oxymorphonazine (OMZ)-induced analgesia (tail flick) in rats; type: in vivo, rat; details: S.C.; for ED50 / ED100: Rattus norvegicus, sc, Table 8; for ED50: read-out: ED 50, oxymorphonazine antagonism; for ED100: read-out: ED 100, oxymorphonazine antagonism; for Percent Antagonism at 1 Hr / Percent Antagonism at 1.5 Hr / Percent Antagonism at 2 Hr / Percent Antagonism at 3 Hr / Percent Antagonism at 4 Hr / Percent Antagonism at 6 Hr / Percent Antagonism at 8 Hr: dose tested (mg/kg): Naltrexone 0.5, Nalmefene 1.0, XI 10.0, XII 2.5, XIII 0.5, XIV 5.0
Procedure: The compound of Example XII was evaluated for its potency and duration in the antagonism of oxymorphonazine (OMZ)-induced analgesia. […] Data represent the mean SEM of 4-5 animals per group.
(Cowan A. Trendsin Pharmacology Science, 7:69-72, 1986) With this test the intracerebroventricular administration of bombesin produces a characteristic scratching response.

tail flick response = test: radiant heat tail flick analgesia in rats; type: in vivo, rat
Procedure: The analgesic properties of the compounds prepared in accordance with Examples III and IV were evaluated in rats using the radiant heat and tail flick paradigm. […] Flick latencies in FIGS. 11-13 were determined at 30 minute intervals through 3.5 h and the data was expressed as a percentage of the maximum possible effect (% MPE). A 15 sec. cut-off latency was used to minimize tissue damage. The values shown are the mean values for 6 rats.
A 15 sec. cut-off latency was used to prevent tissue damage.
The analgesic properties of compounds XXII and XXIII were evaluated in rats using the writhing assay and tail flick paradigm. […] The writhing assay which uses a chemical stimulus to produce pain, is believed to be more sensitive to kappa agonist activity than other measures of analgesia which uses a heat stimulus (Dykstra, L.A. Behavioral Pharmacology: The Current Status, N.Y.: Allan R. Liss. Inc. 1985).

[4] = read-out: Ki, inhibition of specific [^3 H] DADLE binding, Tables 1 and 2, rat brain membranes, MEAN±S.E.M.
[5] = Ki, inhibition of specific [^3 H] DAGO binding, Tables 1 and 2, rat brain membranes, MEAN±S.E.M.
[6] = read-out: (Ki) nM, δ receptor (Rat Forebrain), Table 6, [^3 H] DADLE, mean of three experiments
[7] = (Ki) nM, μ receptor (Rat Forebrain), Table 6, [^3 H] DAGO, mean of three experiments

Chain of delta-type opioid receptor (P33533 whole entry): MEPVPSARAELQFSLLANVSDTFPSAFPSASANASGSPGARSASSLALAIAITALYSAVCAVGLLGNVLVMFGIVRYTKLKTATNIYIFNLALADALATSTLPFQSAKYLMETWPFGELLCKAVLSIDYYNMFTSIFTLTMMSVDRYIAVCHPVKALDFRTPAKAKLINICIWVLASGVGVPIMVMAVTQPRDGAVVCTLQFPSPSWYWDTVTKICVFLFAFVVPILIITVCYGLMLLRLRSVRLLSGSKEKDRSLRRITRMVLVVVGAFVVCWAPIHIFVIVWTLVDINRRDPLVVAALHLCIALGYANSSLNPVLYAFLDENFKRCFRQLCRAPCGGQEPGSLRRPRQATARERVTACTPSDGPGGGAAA
T2 sequence (P41144 whole entry): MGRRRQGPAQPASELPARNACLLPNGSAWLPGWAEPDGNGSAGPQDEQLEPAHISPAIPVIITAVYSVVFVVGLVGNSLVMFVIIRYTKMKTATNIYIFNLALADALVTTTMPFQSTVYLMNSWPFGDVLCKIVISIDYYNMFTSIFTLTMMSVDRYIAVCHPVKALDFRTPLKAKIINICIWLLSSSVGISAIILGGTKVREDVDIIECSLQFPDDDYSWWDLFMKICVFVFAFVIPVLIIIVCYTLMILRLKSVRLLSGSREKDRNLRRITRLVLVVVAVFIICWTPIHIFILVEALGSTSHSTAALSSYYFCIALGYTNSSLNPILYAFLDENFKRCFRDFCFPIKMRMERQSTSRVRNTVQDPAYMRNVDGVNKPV
T1 sequence (P33535 whole entry): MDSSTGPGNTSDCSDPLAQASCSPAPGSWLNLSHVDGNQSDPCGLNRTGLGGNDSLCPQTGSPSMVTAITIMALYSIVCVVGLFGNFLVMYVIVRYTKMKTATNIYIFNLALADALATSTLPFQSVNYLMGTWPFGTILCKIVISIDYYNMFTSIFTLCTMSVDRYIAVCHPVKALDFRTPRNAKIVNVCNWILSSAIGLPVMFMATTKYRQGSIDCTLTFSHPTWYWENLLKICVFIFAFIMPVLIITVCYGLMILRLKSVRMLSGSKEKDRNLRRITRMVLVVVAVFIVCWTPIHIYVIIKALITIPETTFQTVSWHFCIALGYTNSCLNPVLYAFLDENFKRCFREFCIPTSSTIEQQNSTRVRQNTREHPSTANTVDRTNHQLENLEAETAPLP

Compound `CON=C1CC[C@@]2(O)[C@H]3Cc4ccc(O)c5c4[C@@]2(CCN3C)[C@H]1O5` [Example II, 6-Methyloximino-17-methyl-4,5 α-epoxy-3, 14-dihydroxymorphinan] has a Ki [1, 4] of 3.44 ± 0.83 nM and a Ki (mu-type opioid receptor; [5]) of 0.97 ± 0.1 nM.

For `ON=C1CC[C@@]2(O)[C@H]3Cc4ccc(O)c5c4[C@@]2(CCN3CC2CC2)[C@H]1O5` [Example IX, 6-Oximino-17-cyclopropylmethyl-4,5 α-epoxy-3, 14-dihydroxymorphinan], the Ki [1, 6] was 1.64 nM, the Ki (mu-type opioid receptor; [7]) was 0.24 nM and the “mean Hill coefficient, [^3 H] DAGO binding” value (mu-type opioid receptor; Tables 1 and 2, numbers in parentheses) was 0.81. The Ki (mu-type opioid receptor; Tables 1 and 2, rat brain membranes, MEAN±S.E.M., read-out: Ki, inhibition of specific [^3 H] DAGO binding) was 0.24 ± 0.03 nM, the “fold more potent to inhibit specific [^3 H]DAGO binding” value (mu-type opioid receptor; than compound of Example X or XI, or naltrexone) was 3 fold and the Ki [2] was 2.05 nM.

For `CON=C1CC[C@@]2(O)[C@H]3Cc4ccc(O)c5c4[C@@]2(CCN3CC2CC2)[C@H]1O5` [Example X, 6-Methyloximino-17-cyclopropylmethyl-4,5 α-epoxy-3, 14-dihydroxymorphinan], the Ki [1, 4] was 1.8 ± 0.22 nM and the Ki (mu-type opioid receptor; [5]) was 0.66 ± 0.06 nM.

In the case of `Oc1ccc2c3c1O[C@H]1C(=NOCc4ccccc4)CC[C@@]4(O)[C@@H](C2)N(CC2CC2)CC[C@]314` [Example XI, 6-Benzyloximino-17-cyclopropylmethyl-4, 5 α-epoxy-3, 14-dihydroxymorphinan], the Ki [1, 6] is reported as 0.87 nM, the Ki [1, 4] is reported as 0.7 ± 0.22 nM and the Ki (mu-type opioid receptor; [7]) is reported as 0.55 nM. For the same compound, the Ki (mu-type opioid receptor; [5]) was 0.55 ± 0.12 nM, the ED50 [3] was 1.2 mg/kg and the ED100 [3] was 13 mg/kg. The “Percent Antagonism at 1 Hr” value [3] was 72%, the “Percent Antagonism at 1.5 Hr” value [3] was 86% and the “Percent Antagonism at 2 Hr” value [3] was 91%. For the same compound, the “Percent Antagonism at 3 Hr” value [3] was 93%, the “Percent Antagonism at 4 Hr” value [3] was 103% and the “Percent Antagonism at 6 Hr” value [3] was 122%. For the same compound, the “Percent Antagonism at 8 Hr” value [3] was 64%.

With `Cc1ccc(ON=C2CC[C@@]3(O)[C@H]4Cc5ccc(O)c6c5[C@@]3(CCN4CC3CC3)[C@H]2O6)cc1C` [Example XIII, 6-[3,4-dimethylphenyl]oximino-17-cyclopropylmethyl-4,5α-epoxy-3,14-dihydroxymorphinan] the Ki [1, 6] was 2.69 nM, the Ki (mu-type opioid receptor; [7]) was 1.64 nM and the ED50 [3] was 0.09 mg/kg. The ED100 [3] was 0.74 mg/kg, the “Percent Antagonism at 1 Hr” value [3] was 77% and the “Percent Antagonism at 1.5 Hr” value [3] was 72%. For the same compound, the “Percent Antagonism at 2 Hr” value [3] was 67%, the “Percent Antagonism at 3 Hr” value [3] was 79% and the “Percent Antagonism at 4 Hr” value [3] was 72%. The “Percent Antagonism at 6 Hr” value [3] was 71% and the “Percent Antagonism at 8 Hr” value [3] was 97%.

In the case of `Oc1ccc2c3c1O[C@H]1C(=NOC4CCCc5ccccc54)CC[C@@]4(O)[C@@H](C2)N(CC2CC2)CC[C@]314` (stereo partly drawn) [Example XIV, 6-[1,2,3,4-tetrahydronaphth-1-yl]oximino-17-cyclopropylmethyl-4,5 α-epoxy-3,14-dihydroxymorphinan], the Ki [1, 6] is reported as 0.6 nM, the Ki (mu-type opioid receptor; [7]) is reported as 2.76 nM and the ED50 [3] is reported as 0.02 mg/kg. For the same compound, the ED100 [3] was 6.73 mg/kg, the “Percent Antagonism at 1 Hr” value [3] was 80% and the “Percent Antagonism at 1.5 Hr” value [3] was 84%. For the same compound, the “Percent Antagonism at 2 Hr” value [3] was 82%, the “Percent Antagonism at 3 Hr” value [3] was 84% and the “Percent Antagonism at 4 Hr” value [3] was 83%. The “Percent Antagonism at 6 Hr” value [3] was 41%, the “Percent Antagonism at 8 Hr” value [3] was 20% and the Ki [2] was 4.66 nM.

In the case of `Cc1cccc(ON=C2CC[C@@]3(O)[C@H]4Cc5ccc(O)c6c5[C@@]3(CCN4CC3CC3)[C@H]2O6)c1C` [Example XV, 6-[2,3-dimethylphenyl]oximino-17-cyclopropylmethyl-4,5 α-epoxy-3,14-dihydroxymorphinan], the Ki [1, 6] is reported as 1.23 nM and the Ki (mu-type opioid receptor; [7]) is reported as 1.19 nM.

`Oc1ccc2c3c1O[C@H]1C(=NOc4ccc(C(F)(F)F)cc4)CC[C@@]4(O)[C@@H](C2)N(CC2CC2)CC[C@]314` [Example XVII, 6-[4-trifluoromethylphenyl]oximino-17-cyclopropylmethyl-4,5 α-epoxy-3,14-dihydroxymorphinan] gave a Ki [1, 6] of 34.4 nM and a Ki (mu-type opioid receptor; [7]) of 26.4 nM.

`CC(C)(C)ON=C1CC[C@@]2(O)[C@H]3Cc4ccc(O)c5c4[C@@]2(CCN3CC2CC2)[C@H]1O5` [Example XVI] showed a Ki [1, 6] of 0.41 nM, a Ki (mu-type opioid receptor; [7]) of 1.01 nM and a Ki [2] of 7.39 nM.

With `N=C(N)c1ccc(ON=C2CC[C@@]3(O)[C@H]4Cc5ccc(O)c6c5[C@@]3(CCN4CC3CC3)[C@H]2O6)cc1` [Example XX, 6-[4-iminoaminomethylphenyl]oximino-17-cyclopropylmethyl-4,5 α-epoxy-3,14-dihydroxymorphinan] the Ki [1, 6] was 1.67 nM, the Ki (mu-type opioid receptor; read-out: (Ki) nM, μ receptor (Rat Forebrain), Table 6, [^3 H] DAGO, mean of three experiments) was 0.73 nM and the Ki ([2]; read-out: (Ki) nM, κ receptor (GP Cerebellum), Table 6, [^3 H] EKC, mean of three experiments) was 0.64 nM.

`O=C1c2ccccc2C(=O)N1Cc1ccc(ON=C2CC[C@@]3(O)[C@H]4Cc5ccc(O)c6c5[C@@]3(CCN4CC3CC3)[C@H]2O6)cc1` [Example XXI, 6-[4-phthalimidomethylphenyl]oximino-17-cyclopropylmethyl-4,5 α-epoxy-3,14-dihydroxymorphinan] was tested, and the Ki [1, 6] was 2.57 nM, the Ki (mu-type opioid receptor; [7]) was 7.35 nM and the Ki [2] was 18 nM.

With `NCc1ccc(ON=C2CC[C@@]3(O)[C@H]4Cc5ccc(O)c6c5[C@@]3(CCN4CC3CC3)[C@H]2O6)cc1` [Example XXIV, 6-[4-aminomethylphenyl]oximino-17-cyclopropylmethyl-4,5α-epoxy-3,14-dihydroxymorphinan] the Ki [1, 6] was 1 nM, the Ki (mu-type opioid receptor; [7]) was 0.34 nM and the Ki [2] was 0.71 nM.

`Oc1ccc2c3c1O[C@H]1C(=NOC4CCCCC4)CC[C@@]4(O)[C@@H](C2)N(CC2CC2)CC[C@]314` [Example XXV, 6-cyclohexyloximino-17-cyclopropylmethyl-4,5 α-epoxy-3,14-dihydroxymorphinan] showed a Ki [1, 6] of 0.08 nM, a Ki (mu-type opioid receptor; [7]) of 1.1 nM and a Ki [2] of 9.76 nM.

`Oc1ccc2c3c1O[C@H]1C(=NOC4CCCC4)CC[C@@]4(O)[C@@H](C2)N(CC2CC2)CC[C@]314` [Example XXVI, 6-cyclopentyloximino-17-cyclopropylmethyl-4,5 α-epoxy-3,14-dihydroxymorphinan] gave a Ki [1, 6] of 0.04 nM, a Ki (mu-type opioid receptor; [7]) of 0.52 nM and a Ki [2] of 7.94 nM.

For `Oc1ccc2c3c1O[C@H]1C(=NOC45CC6CC(CC(C6)C4)C5)CC[C@@]4(O)[C@@H](C2)N(CC2CC2)CC[C@]314` [Example XXVII, 6-[1-adamantyl]oximino-17-cyclopropylmethyl-4,5 α-epoxy-3,14-dihydroxymorphinan], the Ki [1, 6] was 2.63 nM, the Ki (mu-type opioid receptor; [7]) was 5.39 nM and the Ki [2] was 6.41 nM.

For `CN1CC[C@]23c4c5ccc(O)c4O[C@H]2[C@@H](O)C=C[C@H]3[C@H]1C5` [Morphine, morphine, reference compound], the “ED50, tail flick analgesia” value (tail flick response; S.C., 30 min) was 4.91 µmol/kg, the “dose producing approximately equal analgesia” value (tail flick response; S.C., tail flick, through 3.5 hr) was ~10.5 µmol/kg and the “ED50, Antagonism of the Tail-Flick Response in the Rat” value (tail flick response; Table 7) was 2.60 mg/kg. For the same compound, the “antagonism of tail-flick response to heat” value (tail flick response; rat) was “effectively antagonized the tail-flick response to a heat stimulus in the rat”.

For `Oc1ccc2c3c1O[C@H]1C(=NOc4ccccc4C(F)(F)F)CC[C@@]4(O)[C@@H](C2)N(CC2CC2)CC[C@]314` [XIX, 6-[2-trifluoromethylphenyl]oximino-17-cyclopropylmethyl-4,5 α-epoxy-3,14-dihydroxymorphinan], the Ki [1, 6] was 1.29 nM and the Ki (mu-type opioid receptor; [7]) was 3.77 nM.

`N#Cc1ccc(ON=C2CC[C@@]3(O)[C@H]4Cc5ccc(O)c6c5[C@@]3(CCN4CC3CC3)[C@H]2O6)cc1` [XVIII, 6-[4-cyanophenyl]oximino-17-cyclopropylmethyl-4,5α-epoxy-3,14-dihydroxymorphinan] was tested, and the Ki [1, 6] was 1.64 nM, the Ki (mu-type opioid receptor; [7]) was 2.07 nM and the Ki [2] was 12.9 nM.
